Experimental findings from ChEMBL document CHEMBL1136238, “Synthesis and PDF inhibitory activities of novel benzothiazolylidenehydroxamic acid derivatives” (Bioorg Med Chem Lett, 2003) are described below.

The test system of one experiment is Staphylococcus aureus. In words: In vitro minimum inhibitory concentration required against Staphylococcus aureus ATCC 10390. The class given is functional.
A further experiment deals with Escherichia coli. In words: In vitro minimum inhibitory concentration required against Escherichia coli ATCC 25922. It is filed as functional.
In the next experiment the test system is Pseudomonas aeruginosa. In words: In vitro minimum inhibitory concentration required against Pseudomonas aeruginosa ATCC 9027. The class given is functional.
Experiment [1] has as its target Peptide deformylase (Escherichia coli) (UniProt P0A6K3). In words: In vitro inhibitory concentration required against peptide deformylase (PDF).

Converted amounts (≈) assume the structure as drawn.

Peptide deformylase (Escherichia coli), sequence (P0A6K3 whole entry, looked up): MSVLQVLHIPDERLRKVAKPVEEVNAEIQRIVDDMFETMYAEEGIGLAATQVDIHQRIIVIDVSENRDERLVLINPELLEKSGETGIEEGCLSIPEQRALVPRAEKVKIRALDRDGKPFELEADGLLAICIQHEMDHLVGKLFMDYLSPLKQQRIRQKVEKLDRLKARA

For orientation: MIC means the smallest concentration in the dilution series that meets the test's criterion for growth inhibition. As a reminder, the IC50 is the concentration at which inhibition is half-maximal. Turning to `CCN1/C(=C/C(=O)NO)Sc2ccccc21`, the minimal inhibitory concentration (MIC) against Staphylococcus aureus, against Escherichia coli and in the experiment with Pseudomonas aeruginosa was over 100 µg/mL throughout. Besides, the IC50 in experiment [1] is over 100 µM.

Consider `CCCCN1/C(=C/C(=O)O)Sc2ccccc21`, for which the MIC against Staphylococcus aureus, with Escherichia coli and in the experiment on Pseudomonas aeruginosa was over 100 µg/mL each time. The molecule also returned an IC50 in experiment [1] of over 100 µM.

For `CCCCN1/C(=C/C(=O)NO)S(=O)(=O)c2ccccc21`, the MIC against Staphylococcus aureus, in the experiment on Escherichia coli and with Pseudomonas aeruginosa was over 100 µg/mL each time. The molecule also came in with a 50% inhibitory concentration (IC50) in experiment [1] of over 100 µM.

As for `CCCCN1/C(=C/C(=O)NO)Sc2ccccc21`, the MIC against Escherichia coli was over 100 µg/mL; with Pseudomonas aeruginosa, 100 µg/mL (≈ 378 µM).

Turning to `CCCCCN1/C(=C/C(=O)NO)Sc2ccccc21`, the MIC was 100 µg/mL (≈ 359 µM) against Staphylococcus aureus, over 100 µg/mL against Escherichia coli and 100 µg/mL (≈ 359 µM) in the experiment with Pseudomonas aeruginosa. Also, inhibition in experiment [1] was half-maximal at 9.91 µM (IC50).

Consider `CCCN1/C(=C/C(=O)NO)Sc2ccccc21`, for which the results for the MIC with Staphylococcus aureus, in the experiment on Escherichia coli and in the experiment on Pseudomonas aeruginosa were 10 µg/mL (≈ 39.9 µM), over 100 µg/mL and 100 µg/mL (≈ 399 µM), respectively. Further, in experiment [1], the midpoint of inhibition, the IC50, lay at 8.39 µM.

Turning to `CCCCC[C@H](CC(=O)NO)C(=O)N[C@H](C(=O)N1CCC[C@H]1CO)C(C)C` [ACTINONIN], the figures for the MIC with Staphylococcus aureus, in the experiment on Escherichia coli and against Pseudomonas aeruginosa were 3 µg/mL (≈ 7.78 µM), 50 µg/mL (≈ 130 µM) and 100 µg/mL (≈ 259 µM), respectively.
